Experimental data: publication PMC8247773, “Benzohydrazide and Phenylacetamide Scaffolds: New Putative ParE Inhibitors” (Frontiers in Bioengineering and Biotechnology, 2021)
In brackets after ≈: the same amount, converted by molar mass.

Experiments:
[1] = test system: Escherichia coli (NCIM 2567); parameters: method as in Yele et al., 2020, 2021; settings: ref Yele et al., 2020, 2021; cited from earlier work
[2] = test system: Pseudomonas aeruginosa (NCIM 2036); parameters: method as in Yele et al., 2020, 2021; settings: ref Yele et al., 2020, 2021; cited from earlier work
[3] = test system: Escherichia coli (NCIM 2065); assay: Antibacterial susceptibility test, microbroth dilution MIC; assay type: cell-based; settings: E. Coli (NCIM 2065); mean ± SD
[4] = test system: Bacillus subtilis (NCIM 2545); parameters: method as in Yele et al., 2020, 2021; settings: ref Yele et al., 2020, 2021; cited from earlier work
E. coli ParE enzyme = target: T1, E. coli ParE enzyme (Escherichia coli, UniProt P20083); assay: E. coli ParE ATPase enzyme inhibition assay (ProFoldin kit, malachite green); assay type: biochemical; settings: ATPase activity, mean ± SD (n = 3)
T1 construct: purchased ProFoldin, Hudson, United States
T1 sequence (P20083 whole entry): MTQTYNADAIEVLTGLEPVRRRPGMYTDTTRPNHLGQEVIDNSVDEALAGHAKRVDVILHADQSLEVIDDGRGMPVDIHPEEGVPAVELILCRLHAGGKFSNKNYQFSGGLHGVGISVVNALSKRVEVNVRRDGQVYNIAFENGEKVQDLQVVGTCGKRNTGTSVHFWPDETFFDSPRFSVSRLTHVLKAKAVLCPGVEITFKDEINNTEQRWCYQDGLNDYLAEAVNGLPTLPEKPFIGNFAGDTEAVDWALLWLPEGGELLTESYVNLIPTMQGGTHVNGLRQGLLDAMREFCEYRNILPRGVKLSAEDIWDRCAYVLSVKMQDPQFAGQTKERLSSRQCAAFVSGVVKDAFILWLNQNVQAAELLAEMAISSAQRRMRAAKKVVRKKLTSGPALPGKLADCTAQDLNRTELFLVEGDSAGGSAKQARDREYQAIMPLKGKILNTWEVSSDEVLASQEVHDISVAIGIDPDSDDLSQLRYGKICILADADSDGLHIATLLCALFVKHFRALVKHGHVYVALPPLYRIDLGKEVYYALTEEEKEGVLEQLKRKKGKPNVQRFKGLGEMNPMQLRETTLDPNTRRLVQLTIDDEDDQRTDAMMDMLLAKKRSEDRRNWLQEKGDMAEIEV
T1 sequence (P0AFI2 whole entry, further chain): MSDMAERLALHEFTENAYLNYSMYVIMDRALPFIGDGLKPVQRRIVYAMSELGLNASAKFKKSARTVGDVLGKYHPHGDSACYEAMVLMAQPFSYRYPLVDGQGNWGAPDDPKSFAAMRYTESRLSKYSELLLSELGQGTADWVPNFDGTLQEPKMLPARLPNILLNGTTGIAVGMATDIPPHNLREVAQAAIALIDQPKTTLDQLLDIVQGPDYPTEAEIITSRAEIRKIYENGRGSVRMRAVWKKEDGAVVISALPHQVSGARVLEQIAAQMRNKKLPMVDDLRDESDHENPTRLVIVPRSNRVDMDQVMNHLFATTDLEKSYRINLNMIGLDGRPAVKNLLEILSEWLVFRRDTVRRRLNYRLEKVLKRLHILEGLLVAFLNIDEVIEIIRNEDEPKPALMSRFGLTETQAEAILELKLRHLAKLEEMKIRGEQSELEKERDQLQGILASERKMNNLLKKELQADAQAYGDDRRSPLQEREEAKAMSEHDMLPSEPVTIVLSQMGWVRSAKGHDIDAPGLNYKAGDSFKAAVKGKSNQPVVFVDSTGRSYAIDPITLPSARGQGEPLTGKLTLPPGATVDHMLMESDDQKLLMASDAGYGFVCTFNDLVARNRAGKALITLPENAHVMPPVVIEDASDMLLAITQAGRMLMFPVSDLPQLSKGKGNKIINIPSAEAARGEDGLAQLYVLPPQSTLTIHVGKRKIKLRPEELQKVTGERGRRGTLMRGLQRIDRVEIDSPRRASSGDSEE
Experimental: The assay was performed as per the standard protocol provided by the ProFoldin. […] ParE hydrolyzes ATP as the source of molecular energy to perform decatenation reactions. Fluoroquinolones and aminocoumarins usually block ATPase activity to hinder the biological activities of topoisomerase II. Thus, the topoisomerase ATPase assay can be used for high-throughput screening of topoisomerase inhibitors. The ATPase activity of the E. coli ParE enzyme was based on the detection of inorganic phosphate produced by the hydrolysis of ATP in the presence of DNA. The phosphate is detected using a microplate reader at an absorbance wavelength of 650 nm. The selected compounds were tested for the inhibition of ATPase activity of ParE enzyme. […] The reaction mixture was incubated for 1 h at 37°C and then quenched with 45 μL of Dye. Incubate for 5 min, and the absorbance was measured at 650 nm. The IC50 values were determined from the absorbance readings using no enzyme and no compound controls. They were calculated using the non-linear regression curve fit method.

[5] = test system: Mycobacterium tuberculosis (NCIM 2984); parameters: method as in Yele et al., 2020, 2021; settings: ref Yele et al., 2020, 2021; cited from earlier work
MRSA (NCIM 5021) [6] = assay: Minimum bactericidal concentration (MBC); assay type: cell-based, methicillin-resistant Staphylococcus aureus
Experimental: (§1) MBC can be defined as the minimum concentration of a compound required to kill the bacteria over a fixed period under precise conditions. […] Colonies were counted, and colony forming unit (CFU) per milliliter was calculated.

[7] = test system: Klebsiella pneumonia (NCIM 2706); parameters: method as in Yele et al., 2020, 2021; settings: ref Yele et al., 2020, 2021; cited from earlier work
[8] = test system: Escherichia coli (NCIM 2065); assay: Minimum bactericidal concentration (MBC); assay type: cell-based; settings: E. Coli (NCIM 2065); for MBC/MIC: ratio ≤2 bactericidal, ≥4 tolerance
Experimental: as §1

[9] = test system: Staphylococcus aureus (NCIM 5022); parameters: method as in Yele et al., 2020, 2021; settings: ref Yele et al., 2020, 2021; cited from earlier work
MRSA (NCIM 5021) [10] = assay: Antibacterial susceptibility test, microbroth dilution MIC; assay type: cell-based, methicillin-resistant Staphylococcus aureus; settings: mean ± SD
MRSA (ATCC43300) [11] = assay: as above; assay type: cell-based, methicillin-resistant Staphylococcus aureus; settings: mean ± SD
[12] = test system: Staphylococcus epidermis (NCIM 2493); parameters: method as in Yele et al., 2020, 2021; settings: ref Yele et al., 2020, 2021; cited from earlier work
E. coli = assay: Checkerboard synergy with FDA approved drugs; assay type: cell-based, Escherichia coli
MRSA (ATCC43300) [13] = assay: Minimum bactericidal concentration (MBC); assay type: cell-based, methicillin-resistant Staphylococcus aureus
Experimental: as §1

[14] = FIC of compound 5 in combination
[15] = FIC of compound 21 in combination with the row's drug
[16] = FIC of the drug in combination with compound 5
[17] = FIC of the drug in combination with compound 21

Row | SMILES | Minimum inhibitory concentration (MIC) E. c [1] | Minimum inhibitory concentration (MIC) P. a [2] | Minimum inhibitory concentration [3] [µg/mL] | Minimum inhibitory concentration (MIC) B. s [4] | IC50 against E. coli ParE enzyme (E. coli ParE enzyme) [µg/mL] | Minimum inhibitory concentration (MIC) M. t [5] | MBC (MRSA (NCIM 5021) [6]) [µg/mL] | MBC/MIC (MRSA (NCIM 5021) [6]) | Minimum inhibitory concentration (MIC) K. p [7] | MBC [8] [µg/mL] | MBC/MIC [8] | Minimum inhibitory concentration (MIC) S. a [9] | Minimum inhibitory concentration (MRSA (NCIM 5021) [10]) [µg/mL] | Minimum inhibitory concentration (MRSA (ATCC43300) [11]) [µg/mL] | Minimum inhibitory concentration (MIC) S. e [12] | MBC (MRSA (ATCC43300) [13]) [µg/mL] | MBC/MIC (MRSA (ATCC43300) [13]) | also measured
1 | COc1ccc(OCC(=O)Nc2ccc(Cl)cc2)cc1 [Compound 28] | 0.88 | 5.55 | 1.88 ± 0.11 (≈ 6.44 µM) | 2.04 | 1.93 (≈ 6.62 µM) | 1.47 | 10.62 ± 0.44 (≈ 36.4 µM) | 4 | 1.98 | 3.85 ± 0.25 (≈ 13.2 µM) | 2 | 1.21 | 2.70 ± 0.22 (≈ 9.26 µM) | 2.04 ± 0.16 (≈ 6.99 µM) | 0.71 | – | – | –
2 | CO[C@H]1/C=C/O[C@@]2(C)Oc3c(C)c(O)c4c(O)c(c(/C=N/N5CCN(C)CC5)c(O)c4c3C2=O)NC(=O)/C(C)=C\C=C\[C@H](C)[C@H](O)[C@@H](C)[C@@H](O)[C@@H](C)[C@H](OC(C)=O)[C@@H]1C [Rifampicin] | – | – | – | – | – | – | – | – | – | – | – | – | – | – | – | – | – | FIC A (E. coli; [14]): 0.1202; FIC A (E. coli; [15]): 0.1942; FIC B (E. coli; [16]): 0.0524; FIC B (E. coli; [17]): 0.1281; Inference (E. coli; drug combined with compound 5): Synergistic (synergistic when the ΣFICs is ≤ 0.5); ΣFIC A + FIC B (E. coli; drug combined with compound 5): 0.1726; Inference (E. coli; drug combined with compound 21): Synergistic (synergistic when the ΣFICs is ≤ 0.5); ΣFIC A + FIC B (E. coli; drug combined with compound 21): 0.3223
3 | O=C(COc1ccccc1NC(=O)CCl)NNC(=O)c1ccccc1Cl [Compound 15] | 1.63 | 1.45 | 0.98 ± 0.07 (≈ 2.47 µM) | 0.67 | 1.33 (≈ 3.36 µM) | 3.52 | – | – | 1.89 | – | – | 0.62 | 5.60 ± 0.36 (≈ 14.1 µM) | 1.51 ± 0.49 (≈ 3.81 µM) | 0.64 | 3.18 ± 0.32 (≈ 8.03 µM) | 2 | –
4 | O=C(COc1ccc2ccccc2c1)Nc1ccc(Cl)cc1 [Compound 29] | 0.77 | 5.48 | 0.81 ± 0.14 (≈ 2.6 µM) | 4.69 | 2.77 (≈ 8.88 µM) | 0.77 | 0.75 ± 0.19 (≈ 2.41 µM) | 1 | 0.88 | 0.81 ± 0.14 (≈ 2.6 µM) | 1 | 0.90 | 0.75 ± 0.19 (≈ 2.41 µM) | 0.91 ± 0.11 (≈ 2.92 µM) | 4.70 | 0.91 ± 0.11 (≈ 2.92 µM) | 1 | –
5 | O=C(CSc1nc2ccccc2s1)Nc1ccccc1 [Compound 23] | 2.11 | 1.88 | 0.95 ± 0.05 (≈ 3.16 µM) | 1.27 | 1.76 (≈ 5.86 µM) | 1.74 | 0.94 ± 0.04 (≈ 3.13 µM) | 1 | 1.62 | 0.95 ± 0.05 (≈ 3.16 µM) | 1 | 1.84 | 0.94 ± 0.04 (≈ 3.13 µM) | 0.75 ± 0.11 (≈ 2.5 µM) | 1.51 | 0.75 ± 0.11 (≈ 2.5 µM) | 1 | –
6 | O=C(COc1ccccc1NC(=O)CCl)Nc1cccc(Cl)c1 [Compound 10] | 7.07 | 10.81 | 0.83 ± 0.05 (≈ 2.35 µM) | 1.97 | 1.84 (≈ 5.21 µM) | 5.26 | 0.82 ± 0.03 (≈ 2.32 µM) | 1 | 14.70 | 0.83 ± 0.05 (≈ 2.35 µM) | 1 | 0.92 | 0.82 ± 0.03 (≈ 2.32 µM) | 0.88 ± 0.10 (≈ 2.49 µM) | 1.95 | 0.88 ± 0.10 (≈ 2.49 µM) | 1 | –
7 | O=C(COc1ccccc1NC(=O)CCl)NNC(=O)c1ccncc1 [Compound 16] | 2.12 | 3.23 | 2.60 ± 0.28 (≈ 7.17 µM) | 11.59 | 2.62 (≈ 7.22 µM) | 1.79 | – | – | 2.56 | 9.12 ± 0.11 (≈ 25.1 µM) | 4 | 8.99 | 5.65 ± 0.27 (≈ 15.6 µM) | 2.74 ± 0.19 (≈ 7.55 µM) | 7.24 | – | – | –
8 | C[C@H]1c2cccc(O)c2C(=O)C2=C(O)[C@]3(O)C(=O)C(C(N)=O)=C(O)[C@@H](N(C)C)[C@@H]3[C@@H](O)[C@@H]21 [Doxycycline] | – | – | – | – | – | – | – | – | – | – | – | – | – | – | – | – | – | FIC A (E. coli; [14]): 0.0702; FIC A (E. coli; [15]): 0.1813; FIC B (E. coli; [16]): 0.0273; FIC B (E. coli; [17]): 0.0262; Inference (E. coli; drug combined with compound 5): Synergistic (synergistic when the ΣFICs is ≤ 0.5); ΣFIC A + FIC B (E. coli; drug combined with compound 5): 0.0975; Inference (E. coli; drug combined with compound 21): Synergistic (synergistic when the ΣFICs is ≤ 0.5); ΣFIC A + FIC B (E. coli; drug combined with compound 21): 0.2075
9 | COc1ccc(C(=O)NNC(=O)COc2ccccc2NC(=O)CCl)cc1 [Compound 13] | 1.92 | 1.25 | 2.60 ± 0.26 (≈ 6.64 µM) | 7.10 | 2.73 (≈ 6.97 µM) | 1.33 | – | – | 0.89 | 9.43 ± 0.11 (≈ 24.1 µM) | 4 | 3.28 | 8.36 ± 0.30 (≈ 21.3 µM) | 2.47 ± 0.46 (≈ 6.3 µM) | 4.15 | – | – | –
10 | O=C(COc1ccccc1NC(=O)CCl)Nc1ccc(S(=O)(=O)O)cc1 [Compound 6] | 0.86 | 0.64 | 1.56 ± 0.30 (≈ 3.91 µM) | 3.56 | 1.19 (≈ 2.98 µM) | 15.23 | 7.39 ± 0.18 (≈ 18.5 µM) | 4 | 0.78 | 3.7 ± 0.12 (≈ 9.28 µM) | 3 | 5.23 | 1.86 ± 0.10 (≈ 4.66 µM) | 1.71 ± 0.21 (≈ 4.29 µM) | 7.89 | 4.56 ± 0.08 (≈ 11.4 µM) | 3 | –
